Reference: patent US20060046968A1, “Prodrug substituted benzoxazoles as estrogenic agents” (priority 2004, published 2006)
Several values for one entry are separate records, joined by “and”; a condition that tells them apart may be missing. Identical values can stand only once.

Experiments:
Type in all cases: in vivo
[1] = tested on: Sexually immature Sprague-Dawley rats; test: Rat uterotrophic test procedure (Procedure 1)
morphine-addicted rats = test: Rat hot flush test procedure (tail skin temperature after naloxone)
From the text: The effect of test compounds on hot flushes can be evaluated in a standard pharmacological test procedure that measures the ability of a test compound to blunt the increase in tail skin temperature, which occurs as morphine-addicted rats are acutely withdrawn from the drug using naloxone [Merchenthaler, et al., Maturitas 30: 307-16 (1998)]. It can also be used to detect estrogen receptor antagonist activity by co-dosing test compound with the reference estrogen. The following data were obtained from representative metabolites of compounds of the invention (Table 7).

[2] = tested on: ovulation (number of oocytes ovulated); test: Ovulation inhibition test procedure; conditions: 50 mg/kg
From the text: The test procedure is used to determine whether test compounds can inhibit or change the timing of ovulation. It can also be used to determine the number of oocytes ovulated [Lundeen, et al., J Steroid Biochem Mol Biol 78: 137-143 (2001)]. The following data were obtained from representative metabolites of compounds from the invention (Table 22).

Female Mongolian gerbils = test: Transient global ischemia in the Mongolian gerbil: neurogranin mRNA in hippocampus; conditions: gerbil hippocampus after 5 min global ischemia; s.c. daily
Description: Transient global ischemia in the Mongolian gerbil. The effect of test compounds on preventing or treating brain injury in response to oxygen deprivation/reperfusion were measured using the following test procedure.
Female Mongolian gerbils (60-80 g; Charles River Laboratories, Kingston, N.Y.) were housed in the Wyeth-Ayerst animal care facility Association for Assessment and Acreditation of Laboratory Animal Care (AAALAC) certified with a 12-hour light, 12-hour dark photoperiod and free access to tap water and a low-estrogen casein diet (Purina®; Richmond, Ind.). After acclimation (3-5 days), gerbils were anesthetized with isoflurane (2-3% mixture with O2), ovariectomized (Day 0). […] On Day 6, gerbils (n=4-5/group) were anesthetized with isoflurane, the common carotid arteries visualized via a mid-line neck incision and both arteries simultaneously occluded for 5 minutes with non-traumatic micro aneurysm clips. […]
The degree of neuronal protection was evaluated by in situ hybridization analysis of neurogranin mRNA. […]
Neurogranin mRNA was selected for these studies because it is highly expressed in the hippocampal neurons including CA1, but absent in glia and other cell types present in this brain region. […] The results from 6 sections (40 μm apart) per animal were averaged and statistically evaluated. […]

[3] = compound 2 mg/rat + 17α-ethinyl, 17β-estradiol 0.06 μg/rat s.c. (antagonist mode)

Oc1ccc(-c2nc3cc(O)cc(Br)c3o2)cc1 [Example 20, 7-BROMO-2-(4-HYDROXYPHENYL)-1,3-BENZOXAZOL-5-OL]
mean uterine weight ± SEM [1, 3]: 95.9 ± 5.5 mg | Temperature change 15 minutes after naloxone injection (mean ± SEM) (morphine-addicted rats; 15 mg/kg): 5.28 ± 0.71 | Number of oocytes (mean ± SEM) [2]: 14.13 ± 0.79

C#C[C@]1(O)CC[C@H]2[C@@H]3CCc4cc(O)ccc4[C@H]3CC[C@@]21C [17α-ethinyl, 17β-estradiol, 17α-ethinyl-17β-estradiol, reference compound]
mean uterine weight ± SEM ([1]; reference estrogen alone, 0.06 μg/rat s.c., days 19-21): 104.7 ± 5.4 mg and 85.5 ± 3.1 mg | Temperature change 15 minutes after naloxone injection (mean ± SEM) (morphine-addicted rats; 0.3 mg/kg): 2.12 ± 1.14

N#Cc1cc(O)cc2nc(-c3ccc(O)cc3)oc12 [Example 41, 5-HYDROXY-2-(4-HYDROXYPHENYL)-1,3-BENZOXAZOL-7-CARBONITRILE]
mean uterine weight ± SEM [1, 3]: 76.6 ± 3.0 mg | Temperature change 15 minutes after naloxone injection (mean ± SEM) (morphine-addicted rats; 15 mg/kg): 5.25 ± 0.72 | Neurogranin mRNA (mean ± stdev) (Female Mongolian gerbils): 43.0 ± 21.8 arbitrary units
